Data taken from patent publication US20070010514A1, “Non-steroidal progesterone receptor modulators” (priority 2005, published 2007).

How the values were obtained:
[1] = biological target: T1, PR-B progesterone receptor (Homo sapiens, UniProt P06401); experiment: Antagonism at the PR-B progesterone receptor (transactivation assay); format: cell-based; conditions: for IC50: read-out: Antagonistic Activity IC50
T1 sequence (P06401 1-933): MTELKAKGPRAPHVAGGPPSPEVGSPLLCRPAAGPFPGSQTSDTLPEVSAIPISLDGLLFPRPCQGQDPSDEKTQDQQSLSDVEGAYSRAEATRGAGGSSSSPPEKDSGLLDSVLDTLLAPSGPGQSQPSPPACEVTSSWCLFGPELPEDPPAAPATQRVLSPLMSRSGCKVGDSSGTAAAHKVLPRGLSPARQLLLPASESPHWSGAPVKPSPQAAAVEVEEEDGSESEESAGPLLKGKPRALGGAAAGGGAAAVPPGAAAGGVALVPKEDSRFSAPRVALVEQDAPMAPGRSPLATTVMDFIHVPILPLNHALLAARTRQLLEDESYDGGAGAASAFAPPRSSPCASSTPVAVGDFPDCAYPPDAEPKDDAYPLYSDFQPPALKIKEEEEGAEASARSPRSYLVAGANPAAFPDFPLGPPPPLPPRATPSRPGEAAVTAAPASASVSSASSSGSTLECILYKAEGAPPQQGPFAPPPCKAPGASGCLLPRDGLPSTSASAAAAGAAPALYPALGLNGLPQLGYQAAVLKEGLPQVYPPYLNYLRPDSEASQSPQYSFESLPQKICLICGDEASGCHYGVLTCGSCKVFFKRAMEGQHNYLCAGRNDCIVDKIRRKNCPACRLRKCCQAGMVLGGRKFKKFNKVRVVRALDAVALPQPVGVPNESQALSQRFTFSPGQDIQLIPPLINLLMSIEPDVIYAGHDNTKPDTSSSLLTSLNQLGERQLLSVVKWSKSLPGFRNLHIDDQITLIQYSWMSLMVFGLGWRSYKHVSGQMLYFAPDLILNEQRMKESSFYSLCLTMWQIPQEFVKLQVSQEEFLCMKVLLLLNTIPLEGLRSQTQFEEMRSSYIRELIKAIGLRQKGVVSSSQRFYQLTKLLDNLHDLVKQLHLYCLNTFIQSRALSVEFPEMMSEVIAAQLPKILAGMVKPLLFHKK
Experimental: Antagonism at the PR-B Progesterone Receptor
The transactivation assay is carried out as described in WO 02/054064.

[2] = biological target: T1, PR-B progesterone receptor; experiment: Agonism on the PR-B progesterone receptor (transactivation assay); format: cell-based; conditions: for EC50: read-out: Agonistic Activity EC50
Experimental: Agonism on the PR-B Progesterone Receptor
The transactivation assay is carried out as described in Fuhrmann et al. (Fuhrmann U., Hess-Stump H., Cleve A., Neef G., Schwede W., Hoffmann J., Fritzemeier K.-H., Chwalisz K., Journal of Medicinal Chem, 43, 26, 2000, 5010-5016).

| Antagonistic Activity Efficacy [1] | IC50 [1] | Agonistic Activity Efficacy [2] | EC50 [2] | SMILES |
| --- | --- | --- | --- | --- |
| 89% | 0.2 nM | 8% | – | COc1ccc(C#CC(O)(CC(C)(C)c2ccccc2)C(=O)Nc2ccc3c(=O)onc(C)c3c2)cc1 (racemic) [Example 18, rac-6-[2-Hydroxy-2-[(4-methoxyphenyl)ethynyl]-4-methyl-4-phenylpentanoylamino]-4-methyl-2,3-benzoxazin-1-one] |
| 86% | 0.2 nM | 10% | 0.2 nM | Cc1noc(=O)c2ccc(NC(=O)C(O)(C#Cc3ccccc3)CC3(c4ccccc4Cl)CCCC3)cc12 (racemic) [Example 5, rac-6-{2-[(2-Chlorophenyl)cyclopentyl]methyl-2-hydroxy-4-phenylbut-3-ynoylamino}-4-methyl-2,3-benzoxazin-1-one] |
| 53% | 6 nM | 35% | 7 nM | C#CC(O)(CC(C)(C)c1ccccc1)C(=O)Nc1ccc2c(=O)onc(C)c2c1 (racemic) [Example 14, rac-6-[2-Ethynyl-2-hydroxy-4-methyl-4-phenylpentanoylamino]-4-methyl-2,3-benzoxazin-1-one] |
| 100% | 2 nM | 0% | – | Cc1cc(C)c(C#CC(O)(CC(C)(C)c2ccccc2)C(=O)Nc2ccc3c(=O)onc(C)c3c2)cc1C (racemic) [Example 35, rac-6-[2-[(2,4,5-Trimethylphenyl)ethynyl]-2-hydroxy-4-methyl-4-phenylpentanoylamino]-4-methyl-2,3-benzoxazin-1-one] |
| 100% | 2 nM | 0% | – | Cc1noc(=O)c2ccc(NC(=O)C(O)(C#Cc3ccccc3C(F)(F)F)CC(C)(C)c3ccccc3)cc12 (racemic) [Example 24, rac-6-[2-Hydroxy-4-methyl-4-phenyl-2-[(2-trifluoromethylphenyl)ethynyl]-pentanoylamino]-4-methyl-2,3-benzoxazin-1-one] |
| 82% | 0.7 nM | 13% | 0.5 nM | Cc1noc(=O)c2ccc(NC(=O)C(O)(C#Cc3ccccc3)CC(C)(C)c3ccccc3)cc12 (racemic) [Example 16, rac-6-[2-Hydroxy-4-methyl-4-phenyl-2-(phenylethynyl)pentanoylamino]-4-methyl-2,3-benzoxazin-1-one] |
| 88% | 0.03 nM | 7% | – | Cc1ccc(C#CC(O)(CC(C)(C)c2ccccc2)C(=O)Nc2ccc3c(=O)onc(C)c3c2)cc1 (single isomer, unassigned; (-)) [Example 17b, (−)-6-[2-Hydroxy-4-methyl-2-[(4-methylphenyl)ethynyl]-4-phenylpentanoylamino]-4-methyl-2,3-benzoxazin-1-one] |
